Tests used:
pigweed = assay: Test A pre-/postemergence herbicide test; assay type: in vivo, Amaranthus retroflexus
Summary of the method: (§1)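 Seeds sown in loam soil/sand blend received a preemergence directed soil spray of test chemical in non-phytotoxic solvent with surfactant; postemergence plants (2–10 cm, one- to two-leaf stage) were sprayed with the same formulation. After about 10 days in greenhouse, injury was rated visually versus untreated controls, 0 (no effect) to 100 (complete control).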

corn = assay: Test A pre-/postemergence herbicide test; assay type: in vivo, Zea mays
Summary of the method: as §1

giant foxtail = assay: Test A pre-/postemergence herbicide test; assay type: in vivo, Setaria faberii
Summary of the method: as §1

morningglory = assay: Test A pre-/postemergence herbicide test; assay type: in vivo, Ipomoea spp.
Summary of the method: as §1

rice = assay: Test B flooded paddy test; assay type: in vivo, Oryza sativa; conditions: Flood, scale of 0 to 100 where 0 is no effect and 100 is complete control
Summary of the method: (§2)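 Plants were grown to the 2-leaf stage, then pots were flooded to 3 cm above the soil and compound was applied directly into the paddy water, with that depth held throughout. After 13 to 15 days in a greenhouse, injury was rated visually against untreated controls on a 0 to 100 scale (100 = complete control).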

sedge, umbrella = assay: Test B flooded paddy test; assay type: in vivo, Cyperus difformis; conditions: Flood, scale of 0 to 100 where 0 is no effect and 100 is complete control
Summary of the method: as §2

crabgrass, large = assay: Test A pre-/postemergence herbicide test; assay type: in vivo, Digitaria sanguinalis
Summary of the method: as §1

ducksalad = assay: Test B flooded paddy test; assay type: in vivo, Heteranthera limosa; conditions: Flood, scale of 0 to 100 where 0 is no effect and 100 is complete control
Summary of the method: as §2

barnyardgrass [1] = assay: Test B flooded paddy test; assay type: in vivo, Echinochloa crus-galli; conditions: Flood, scale of 0 to 100 where 0 is no effect and 100 is complete control
Summary of the method: as §2

barnyardgrass [2] = assay: Test A pre-/postemergence herbicide test; assay type: in vivo, Echinochloa crus-galli
Summary of the method: as §1

velvetleaf = assay: Test A pre-/postemergence herbicide test; assay type: in vivo, Abutilon theophrasti
Summary of the method: as §1

wheat = assay: Test A pre-/postemergence herbicide test; assay type: in vivo, Triticum aestivum
Summary of the method: as §1

[3] = Postemergence, 125 g ai/ha, 0 to 100 scale, 0 no effect, 100 complete control
[4] = Postemergence, 500 g ai/ha, 0 to 100 scale (0 no effect, 100 complete control)
[5] = Preemergence, 125 g ai/ha, visual rating on 0 to 100 scale (0 no effect, 100 complete control)
[6] = preemergence, 500 g ai/ha, 0 to 100 scale
[7] = Postemergence, 1000 g ai/ha, 0 to 100 scale (0 no effect, 100 complete control)
[8] = preemergence, 1000 g ai/ha, 0 to 100 scale
[9] = 125 g ai/ha, visual rating, 0 to 100 scale, 0 no effect, 100 complete control, approximately 10 days, preemergence
[10] = Postemergence, 125 g ai/ha, 0 to 100 scale, 0 is no effect, 100 is complete control
[11] = preemergence, 500 g ai/ha, 0 to 100 scale, 0 is no effect and 100 is complete control

O=C1NCC(c2cc(F)c(F)cc2F)C1C(=O)Nc1ccccc1F (stereo not drawn) [Compound 51]
Plant response rating, Pigweed (pigweed; [3]): 0
Plant response rating, Pigweed (pigweed; [4]): 0
Pigweed plant response rating (pigweed; [5]): 0
Plant response rating, Pigweed (pigweed; [6]): 0
Plant response rating, Corn (corn; [3]): 0
Plant response rating, Corn (corn; [4]): 0
Corn plant response rating (corn; [5]): 0
Plant response rating, Corn (corn; [6]): 0
Plant response rating, Foxtail, Giant (giant foxtail; [3]): 0
Plant response rating, Foxtail, Giant (giant foxtail; [4]): 30
Foxtail, Giant plant response rating (giant foxtail; [5]): 30
Plant response rating, Foxtail, Giant (giant foxtail; [6]): 90
Plant response rating, Morningglory (morningglory; [3]): 0
Plant response rating, Morningglory (morningglory; [4]): 0
Morningglory plant response rating (morningglory; [5]): 0
Plant response rating, Morningglory (morningglory; [6]): 0
Plant response rating, Rice (rice; 250 g ai/ha): 15
Plant response rating, Sedge, Umbrella (sedge, umbrella; 250 g ai/ha): 45
Plant response rating, Crabgrass, Large (crabgrass, large; [3]): 20
Plant response rating, Crabgrass, Large (crabgrass, large; [4]): 80
Crabgrass, Large plant response rating (crabgrass, large; [5]): 90
Plant response rating, Crabgrass, Large (crabgrass, large; [6]): 90
Plant response rating, Ducksalad (ducksalad; 250 g ai/ha): 80
Plant response rating, Barnyardgrass (barnyardgrass [1]; 250 g ai/ha): 20
Plant response rating, Barnyardgrass (barnyardgrass [2]; [3]): 0
Plant response rating, Barnyardgrass (barnyardgrass [2]; [4]): 20
Barnyardgrass plant response rating (barnyardgrass [2]; [5]): 0
Plant response rating, Barnyardgrass (barnyardgrass [2]; preemergence, 500 g ai/ha, 0 to 100 scale (0 no effect, 100 complete control)): 0
Plant response rating, Velvetleaf (velvetleaf; [3]): 0
Plant response rating, Velvetleaf (velvetleaf; [4]): 0
Velvetleaf plant response rating (velvetleaf; [5]): 0
Plant response rating, Velvetleaf (velvetleaf; [6]): 0
Plant response rating, Wheat (wheat; [3]): 0
Plant response rating, Wheat (wheat; [4]): 0
Wheat plant response rating (wheat; [5]): 0
Plant response rating, Wheat (wheat; [6]): 0

O=C1NCC(c2ccc(F)c(F)c2)C1C(=O)Nc1ccc(F)cc1 (racemic) [Compound 193]
Plant response rating, Pigweed (pigweed; [7]): 0
Plant response rating, Pigweed (pigweed; [8]): 0
Plant response rating, Corn (corn; [7]): 0
Plant response rating, Corn (corn; [8]): 0
Plant response rating, Foxtail, Giant (giant foxtail; [7]): 80
Plant response rating, Foxtail, Giant (giant foxtail; [8]): 90
Plant response rating, Morningglory (morningglory; [7]): 0
Plant response rating, Morningglory (morningglory; [8]): 0
Plant response rating, Rice (rice; 1000 g ai/ha): 20
Plant response rating, Sedge, Umbrella (sedge, umbrella; 1000 g ai/ha): 20
Plant response rating, Crabgrass, Large (crabgrass, large; [7]): 90
Plant response rating, Crabgrass, Large (crabgrass, large; [8]): 100
Plant response rating, Ducksalad (ducksalad; 1000 g ai/ha): 60
Plant response rating, Barnyardgrass (barnyardgrass [1]; 1000 g ai/ha): 0
Plant response rating, Barnyardgrass (barnyardgrass [2]; [7]): 90
Plant response rating, Barnyardgrass (barnyardgrass [2]; preemergence, 1000 g ai/ha, 0 to 100 scale (0 no effect, 100 complete control)): 80
Plant response rating, Velvetleaf (velvetleaf; [7]): 0
Plant response rating, Velvetleaf (velvetleaf; [8]): 0
Plant response rating, Wheat (wheat; [7]): 0
Plant response rating, Wheat (wheat; [8]): 0

COc1cc(C2CNC(=O)C2C(=O)Nc2ccccc2F)ccc1F (racemic) [Compound 194]
Plant response rating, Pigweed (pigweed; [9]): 0
Plant response rating, Pigweed (pigweed; [10]): 0
Pigweed plant response rating (0 to 100 scale, 0 is no effect, 100 is complete control) (pigweed; Postemergence, 500 g ai/ha): 0
Plant response rating, Pigweed (pigweed; [11]): 0
Plant response rating, Corn (corn; [9]): 0
Plant response rating, Corn (corn; [10]): 0
Corn plant response rating (0 to 100 scale, 0 is no effect, 100 is complete control) (corn; Postemergence, 500 g ai/ha): 0
Plant response rating, Corn (corn; [11]): 0
Plant response rating, Foxtail, Giant (giant foxtail; [9]): 50
Plant response rating, Foxtail, Giant (giant foxtail; [10]): 10
Foxtail, Giant plant response rating (0 to 100 scale, 0 is no effect, 100 is complete control) (giant foxtail; Postemergence, 500 g ai/ha): 50
Plant response rating, Foxtail, Giant (giant foxtail; [11]): 90
Plant response rating, Morningglory (morningglory; [9]): 0
Plant response rating, Morningglory (morningglory; [10]): 0
Morningglory plant response rating (0 to 100 scale, 0 is no effect, 100 is complete control) (morningglory; Postemergence, 500 g ai/ha): 0
Plant response rating, Morningglory (morningglory; [11]): 0
Plant response rating, Rice (rice; 250 g ai/ha): 0
Plant response rating, Rice (rice; 1000 g ai/ha): 20
Plant response rating, Sedge, Umbrella (sedge, umbrella; 250 g ai/ha): 0
Plant response rating, Sedge, Umbrella (sedge, umbrella; 1000 g ai/ha): 0
Plant response rating, Crabgrass, Large (crabgrass, large; [9]): 90
Plant response rating, Crabgrass, Large (crabgrass, large; [10]): 60
Crabgrass, Large plant response rating (0 to 100 scale, 0 is no effect, 100 is complete control) (crabgrass, large; Postemergence, 500 g ai/ha): 80
Plant response rating, Crabgrass, Large (crabgrass, large; [11]): 100
Plant response rating, Ducksalad (ducksalad; 250 g ai/ha): 45
Plant response rating, Ducksalad (ducksalad; 1000 g ai/ha): 80
Plant response rating, Barnyardgrass (barnyardgrass [1]; 250 g ai/ha): 0
Plant response rating, Barnyardgrass (barnyardgrass [1]; 1000 g ai/ha): 65
Plant response rating, Barnyardgrass (barnyardgrass [2]; [9]): 0
Plant response rating, Barnyardgrass (barnyardgrass [2]; [10]): 50
Barnyardgrass plant response rating (0 to 100 scale, 0 is no effect, 100 is complete control) (barnyardgrass [2]; Postemergence, 500 g ai/ha): 80
Plant response rating, Barnyardgrass (barnyardgrass [2]; [11]): 80
Plant response rating, Velvetleaf (velvetleaf; [9]): 0
Plant response rating, Velvetleaf (velvetleaf; [10]): 0
Velvetleaf plant response rating (0 to 100 scale, 0 is no effect, 100 is complete control) (velvetleaf; Postemergence, 500 g ai/ha): 0
Plant response rating, Velvetleaf (velvetleaf; [11]): 0
Plant response rating, Wheat (wheat; [9]): 0
Plant response rating, Wheat (wheat; [10]): 0
Wheat plant response rating (0 to 100 scale, 0 is no effect, 100 is complete control) (wheat; Postemergence, 500 g ai/ha): 0
Plant response rating, Wheat (wheat; [11]): 0

— patent US10294202B2, “Pyrrolidinones as herbicides” (FMC Corporation, priority 2013, dated 2019)
